Reference: the NIST ThermoML archive (doi:10.1021/acs.jced.7b00221)
Numbers after ± are expanded uncertainties.

Assay: xn = mol fraction of the nth substance listed
Details: 100 kPa, Liquid; for viscosity: Cone and plate viscometry; for mass density: Vibrating tube method

CCn1cc[n+](C)c1.O=S(=O)([N-]S(=O)(=O)C(F)(F)F)C(F)(F)F + CCCCCC[n+]1ccn(C)c1.O=S(=O)([N-]S(=O)(=O)C(F)(F)F)C(F)(F)F
Details | mass density [kg/m3] | viscosity [mPa·s]
278.15 K, x2 = 0 | – | 80 ± 10
278.15 K, x2 = 0.15 | – | 89 ± 11
278.15 K, x2 = 0.3 | – | 95 ± 12
278.15 K, x2 = 0.5 | – | 120 ± 15
278.15 K, x2 = 0.7 | – | 153 ± 19
278.15 K, x2 = 0.85 | – | 181 ± 22
283.15 K, x2 = 0 | 1534.1 ± 4.1 | 63 ± 8
283.15 K, x2 = 0.15 | 1507.1 ± 4.1 | 70 ± 8
283.15 K, x2 = 0.3 | 1481.8 ± 4.1 | 74 ± 9
283.15 K, x2 = 0.5 | 1451 ± 4.1 | 92 ± 11
283.15 K, x2 = 0.7 | 1422.9 ± 4 | 116 ± 14
283.15 K, x2 = 0.85 | 1403.6 ± 4 | 135 ± 16
288.15 K, x2 = 0 | 1529 ± 4.1 | 50 ± 6
288.15 K, x2 = 0.15 | 1502.1 ± 4.1 | 56 ± 7
288.15 K, x2 = 0.3 | 1476.9 ± 4.1 | 58 ± 7
288.15 K, x2 = 0.5 | 1446.3 ± 4.1 | 72 ± 9
288.15 K, x2 = 0.7 | 1418.2 ± 4 | 89 ± 11
288.15 K, x2 = 0.85 | 1399 ± 4 | 102 ± 12
293.15 K, x2 = 0 | 1523.9 ± 4.1 | –
293.15 K, x2 = 0.15 | 1497.1 ± 4.1 | –
293.15 K, x2 = 0.3 | 1472 ± 4.1 | –
293.15 K, x2 = 0.5 | 1441.5 ± 4.1 | 58 ± 7
293.15 K, x2 = 0.7 | 1413.5 ± 4 | 70 ± 8
293.15 K, x2 = 0.85 | 1394.4 ± 4 | 79 ± 10
295.15 K, x2 = 0 | 1521.9 ± 4.1 | –
295.15 K, x2 = 0.15 | 1495.1 ± 4.1 | –
295.15 K, x2 = 0.3 | 1470.1 ± 4.1 | –
295.15 K, x2 = 0.5 | 1439.6 ± 4 | –
295.15 K, x2 = 0.7 | 1411.6 ± 4 | –
295.15 K, x2 = 0.85 | 1392.5 ± 4 | –
298.15 K, x2 = 0 | 1518.9 ± 4 | –
298.15 K, x2 = 0.15 | 1492.2 ± 4.1 | –
298.15 K, x2 = 0.3 | 1467.2 ± 4.1 | –
298.15 K, x2 = 0.5 | 1436.7 ± 4 | –
298.15 K, x2 = 0.7 | 1408.8 ± 4 | 57 ± 7
298.15 K, x2 = 0.85 | 1389.7 ± 4 | 63 ± 8
303.15 K, x2 = 0 | 1513.9 ± 4 | –
303.15 K, x2 = 0.15 | 1487.2 ± 4.1 | –
303.15 K, x2 = 0.3 | 1462.3 ± 4.1 | –
303.15 K, x2 = 0.5 | 1431.9 ± 4 | –
303.15 K, x2 = 0.7 | 1404.1 ± 4 | –
303.15 K, x2 = 0.85 | 1385.1 ± 4 | 51 ± 6
308.15 K, x2 = 0 | 1508.9 ± 4 | –
308.15 K, x2 = 0.15 | 1482.3 ± 4.1 | –
308.15 K, x2 = 0.3 | 1457.5 ± 4.1 | –
308.15 K, x2 = 0.5 | 1427.2 ± 4 | –
308.15 K, x2 = 0.7 | 1399.5 ± 4 | –
308.15 K, x2 = 0.85 | 1380.5 ± 4 | –
313.15 K, x2 = 0 | 1503.9 ± 4 | –
313.15 K, x2 = 0.15 | 1477.4 ± 4.1 | –
313.15 K, x2 = 0.3 | 1452.7 ± 4.1 | –
313.15 K, x2 = 0.5 | 1422.5 ± 4 | –
313.15 K, x2 = 0.7 | 1394.8 ± 4 | –
313.15 K, x2 = 0.85 | 1375.9 ± 4 | –
318.15 K, x2 = 0 | 1499 ± 4 | –
318.15 K, x2 = 0.15 | 1472.5 ± 4.1 | –
318.15 K, x2 = 0.3 | 1447.9 ± 4.1 | –
318.15 K, x2 = 0.5 | 1417.8 ± 4 | –
318.15 K, x2 = 0.7 | 1390.1 ± 4 | –
318.15 K, x2 = 0.85 | 1371.3 ± 4 | –
323.15 K, x2 = 0 | 1494.1 ± 4 | –
323.15 K, x2 = 0.15 | 1467.7 ± 4.1 | –
323.15 K, x2 = 0.3 | 1443.1 ± 4.1 | –
323.15 K, x2 = 0.5 | 1413.1 ± 4 | –
323.15 K, x2 = 0.7 | 1385.5 ± 4 | –
323.15 K, x2 = 0.85 | 1366.8 ± 4 | –
328.15 K, x2 = 0 | 1489.1 ± 4 | –
328.15 K, x2 = 0.15 | 1462.8 ± 4.1 | –
328.15 K, x2 = 0.3 | 1438.3 ± 4.1 | –
328.15 K, x2 = 0.5 | 1408.4 ± 4 | –
328.15 K, x2 = 0.7 | 1380.9 ± 4 | –
328.15 K, x2 = 0.85 | 1362.2 ± 4 | –
333.15 K, x2 = 0 | 1484.2 ± 4 | –
333.15 K, x2 = 0.15 | 1458 ± 4.1 | –
333.15 K, x2 = 0.3 | 1433.5 ± 4.1 | –
333.15 K, x2 = 0.5 | 1403.7 ± 4 | –
333.15 K, x2 = 0.7 | 1376.2 ± 4 | –
333.15 K, x2 = 0.85 | 1357.7 ± 4 | –
338.15 K, x2 = 0 | 1479.3 ± 4 | –
338.15 K, x2 = 0.15 | 1453.2 ± 4.1 | –
338.15 K, x2 = 0.3 | 1428.8 ± 4 | –
338.15 K, x2 = 0.5 | 1399 ± 4 | –
338.15 K, x2 = 0.7 | 1371.6 ± 4 | –
338.15 K, x2 = 0.85 | 1353.2 ± 4 | –
343.15 K, x2 = 0 | 1474.4 ± 4 | –
343.15 K, x2 = 0.15 | 1448.4 ± 4.1 | –
343.15 K, x2 = 0.3 | 1424.1 ± 4 | –
343.15 K, x2 = 0.5 | 1394.4 ± 4 | –
343.15 K, x2 = 0.7 | 1367 ± 4 | –
343.15 K, x2 = 0.85 | 1348.6 ± 4 | –
348.15 K, x2 = 0 | 1469.6 ± 4 | –
348.15 K, x2 = 0.15 | 1443.6 ± 4.1 | –
348.15 K, x2 = 0.3 | 1419.4 ± 4 | –
348.15 K, x2 = 0.5 | 1389.8 ± 4 | –
348.15 K, x2 = 0.7 | 1362.3 ± 4 | –
348.15 K, x2 = 0.85 | 1344.1 ± 4 | –
353.15 K, x2 = 0 | 1464.7 ± 4 | –
353.15 K, x2 = 0.15 | 1438.8 ± 4.1 | –
353.15 K, x2 = 0.3 | 1414.7 ± 4 | –
353.15 K, x2 = 0.5 | 1385.2 ± 4 | –
353.15 K, x2 = 0.7 | 1357.7 ± 4 | –
353.15 K, x2 = 0.85 | 1339.7 ± 4 | –

CCCCCCCCCCCCCC[P+](CCCCCC)(CCCCCC)CCCCCC.N#Cc1ccc[n-]1 [trihexyl(tetradecyl)phosphonium 2-cyanopyrrolide] + CCCCCC[n+]1ccn(C)c1.O=S(=O)([N-]S(=O)(=O)C(F)(F)F)C(F)(F)F
viscosity [mPa·s]
Details | 278.15 K | 283.15 K | 288.15 K | 293.15 K | 298.15 K | 303.15 K | 308.15 K | 313.15 K | 318.15 K | 323.15 K
x1 = 0.1 | 337 ± 43 | 240 ± 30 | 176 ± 22 | 132 ± 16 | 101 ± 12 | 80 ± 10 | 64 ± 8 | 52 ± 6 | – | –
x1 = 0.2 | 520 ± 67 | 363 ± 46 | 259 ± 32 | 190 ± 23 | 144 ± 18 | 111 ± 13 | 88 ± 11 | 71 ± 9 | 58 ± 7 | –
x1 = 0.3 | 662 ± 86 | 455 ± 58 | 319 ± 40 | 229 ± 28 | 170 ± 21 | 129 ± 16 | 100 ± 12 | 79 ± 10 | 64 ± 8 | 52 ± 6
x1 = 0.4 | 900 ± 120 | 608 ± 79 | 420 ± 53 | 298 ± 37 | 217 ± 27 | 162 ± 20 | 125 ± 15 | 97 ± 12 | 78 ± 9 | 63 ± 8
x1 = 0.496 | 1216 ± 160 | 815 ± 110 | 558 ± 72 | 392 ± 50 | 284 ± 36 | 210 ± 26 | 160 ± 20 | 123 ± 15 | 98 ± 12 | 79 ± 10
x1 = 0.6 | 1407 ± 190 | 938 ± 120 | 638 ± 83 | 445 ± 57 | 319 ± 40 | 236 ± 29 | 177 ± 22 | 136 ± 17 | 107 ± 13 | 85 ± 10
x1 = 0.698 | 1684 ± 230 | 1117 ± 150 | 755 ± 99 | 525 ± 67 | 376 ± 48 | 275 ± 34 | 207 ± 26 | 158 ± 19 | 124 ± 15 | 99 ± 12
x1 = 0.8 | 1749 ± 240 | 1160 ± 160 | 785 ± 100 | 546 ± 70 | 391 ± 50 | 286 ± 36 | 214 ± 26 | 163 ± 20 | 128 ± 16 | 102 ± 12
x1 = 0.898 | 1844 ± 250 | 1223 ± 160 | 830 ± 110 | 578 ± 75 | 414 ± 53 | 303 ± 38 | 228 ± 28 | 173 ± 21 | 135 ± 16 | 108 ± 13
x1 = 1 | 1764 ± 240 | 1179 ± 160 | 804 ± 110 | 563 ± 73 | 404 ± 51 | 297 ± 37 | 223 ± 28 | 170 ± 21 | 133 ± 16 | 106 ± 13
